This note sets out measurements from patent US20060116368A1, “4-Piperidinecarboxamide modulators of vanilloid VR1 receptor” (priority 2004, published 2006).

In one assay the target is T1, hVR1 receptors (Homo sapiens, UniProt Q8NER1).
T1 construct: expressed in transfected cells; host or cells: HEK293
As to the kind of experiment: Human VR1 binding assay ([3H]RTX). Conditions: membranes of HEK293 cells transfected with human VR1; for h Binding % I (1 uM): inhibition of [3H]RTX binding; for Ki: [3H]RTX binding. On the procedure: Compounds of the present invention were tested for their ability to inhibit the binding of [^3H] RTX to hVR1 receptors in a [^3H] RTX binding assay as previously described (Zhang, Sui-Po. Improved ligand binding assays for vanilloid receptors. PCT Int. Appl. (2002), WO 0233411 A1 20020425 AN 2002:315209, and Grant, Elfrida R., Dubin, Adrienne E., Zhang, Sui-Po, Zivin, Robert A., Zhong, Zhong Simultaneous intracellular calcium and sodium flux imaging in human vanilloid receptor 1 (VR1)-transfected human embryonic kidney cells: a method to resolve ionic dependence of VR1-mediated cell death. J. Pharmacol. Exp. Ther., 2002, 300(1), 9-17.)
HEK293 cells were transfected with human VR1 vanilloid receptors and washed with Hank's balanced Salt Solution, dissociated with cell dissociation buffer (Sigma), and then centrifuged at 1000×g for 5 min. Cell pellets were homogenized in cold 20 mM HEPES buffer, pH 7.4, containing 5.8 mM NaCl, 320 mM sucrose, 2 mM MgCl2, 0.75 CaCl2 and 5 mM KCl and centrifuged at 1000×g for 15 min. The resultant supernate was then centrifuged at 40000×g for 15 min. The pelleted membranes were stored in a freezer at −80° C.
Approximately 120 μg protein/ml from membranes were incubated with indicated concentrations of [^3H]RTX in 0.5 ml of the HEPES buffer (pH 7.4) containing 0.25 mg/mL fatty acid-free bovine serum albumin at 37° C. for 60 min. The reaction mixture was then cooled to 4° C., added 0.1 mg α1-acid glycoprotein to each sample and incubated at 4° C. for 15 min. The samples were centrifuged at 18500×g for 15 min. The tip of the microcentrifuge tube containing the pellet was cut off. Bound radioactivity was quantified by scintillation counting. Non-specific binding was tested in the presence of 200 nM unlabeled RTX.
Data were calculated according to the equation: % inhibition=(total binding−binding)*100/(total binding−non specific binding). Ki values were calculated using a Prism program.

Assay [1] concerns the target T2, Human Vanilloid Receptor 1 (Homo sapiens, UniProt Q8NER1).
T2 construct: expressed in transfected cells; host or cells: HEK 293
As to the kind of experiment: Human VR1 functional assay using FLIPR, Protocol 1. The format is cell-based. The conditions noted are these: for inhibition at 9 µM: HEK293, 9 uM, HEK 293 cells transfected with hVR1, read-out: h % I (9 uM); for IC50: decreased capsaicin (EC80)-induced calcium response, HEK 293 hVR1, read-out: h IC50. As to the method: The functional activity of the test compounds was determined by measuring changes in intracellular calcium concentration using FLIPR™ Calcium-3 Assay Kit and FLIPR™ technology.
HEK 293 cells transfected with Human Vanilloid Receptor 1 were maintained at 37° C. and 5% CO2 in: Dulbecco's Modification of Eagle's Medium (high glucose, L-glutamine, pyridoxine HCl, No sodium pyruvate), 10% FBS, 1× Penicillin-Streptomycin-Amphotericin B, 200 ug/mL zeocin. Approximately 24 hours prior to assay, 30,000 cells/well were plated onto a 384-well black clear bottom poly-D-lysine-coated assay plate with a well volume of 25 µL using Titertek Multidrop.
On the day of the assay, the medium was dumped and 50 μL 1× dye were loaded using Multidrop. Plates were incubated with dye at 37° C. for 30 minutes followed by 30 minutes incubation at room temperature. Then the plates were assayed by FLIPR™ with 2 additions: 12.5 μL test compound with 5 minutes data acquisition followed by 12.5 μL capsaicin at the EC80 concentration.
The EC50 values of test compounds were calculated based on a test compound-induced calcium response at the 5-minute time point. The IC50 values of compounds were calculated based on a decreased capsaicin-induced calcium response in the presence of test compound.

Where [2] appears, read: inhibition of capsaicin (EC80)-induced calcium response.

T1 sequence (Q8NER1 whole entry): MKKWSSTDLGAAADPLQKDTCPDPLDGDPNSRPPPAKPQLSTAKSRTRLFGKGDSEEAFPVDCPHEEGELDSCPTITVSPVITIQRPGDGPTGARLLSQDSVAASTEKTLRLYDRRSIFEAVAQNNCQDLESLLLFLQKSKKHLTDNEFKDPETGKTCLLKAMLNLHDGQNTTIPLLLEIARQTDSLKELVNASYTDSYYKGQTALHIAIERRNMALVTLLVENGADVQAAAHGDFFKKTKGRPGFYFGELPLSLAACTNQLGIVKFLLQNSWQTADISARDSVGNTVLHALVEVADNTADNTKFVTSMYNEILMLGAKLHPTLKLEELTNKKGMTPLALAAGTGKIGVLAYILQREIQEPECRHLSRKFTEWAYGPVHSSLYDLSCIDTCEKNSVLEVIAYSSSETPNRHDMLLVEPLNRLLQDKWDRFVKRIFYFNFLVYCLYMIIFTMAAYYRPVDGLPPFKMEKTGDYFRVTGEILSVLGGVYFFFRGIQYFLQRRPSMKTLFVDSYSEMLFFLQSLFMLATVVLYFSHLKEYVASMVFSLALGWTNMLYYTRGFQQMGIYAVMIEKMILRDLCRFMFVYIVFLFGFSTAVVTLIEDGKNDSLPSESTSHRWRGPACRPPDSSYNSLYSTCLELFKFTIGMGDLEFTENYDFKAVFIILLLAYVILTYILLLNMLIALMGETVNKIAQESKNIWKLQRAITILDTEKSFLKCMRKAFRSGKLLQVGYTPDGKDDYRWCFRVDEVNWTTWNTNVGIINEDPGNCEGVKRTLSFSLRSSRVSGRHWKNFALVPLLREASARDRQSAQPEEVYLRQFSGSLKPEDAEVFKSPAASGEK
T2 sequence (Q8NER1 whole entry): as above

For orientation: Ki means a dissociation constant, usually derived from enzyme kinetics or from competition with a known ligand. A high value points to a looser hold on the target. The IC50 is the midpoint of a concentration-inhibition curve. On to `Cc1ccc(N2CCC(C(=O)Nc3cnc4ccccc4c3)CC2)cc1C` [Example 6, 1-(3,4-Dimethyl-phenyl)-piperidine-4-carboxylic acid quinolin-3-ylamide], for which, on hVR1 receptors, the “h Binding % I (1 uM)” value is 66.5% and the Ki stood at 0.215 µM. Also, in assay [1] (setting [2]), the inhibition at 9 µM worked out at 92.2%. Moreover, in assay [1], the IC50 was 0.35 µM.
For `O=C(Nc1cccc2[nH]ccc12)C1CCN(c2cccc(C(F)(F)F)c2)CC1` [Example 8, 1-(3-Trifluoromethyl-phenyl)-piperidine-4-carboxylic acid (1H-indol-4-yl)-amide], in that order: 87.0%, 0.134 µM, 101% and 0.23 µM.
`CC(=O)N1CCc2cccc(NC(=O)C3CCN(c4cccc(C(F)(F)F)c4)CC3)c21` [Example 9, 1-(3-Trifluoromethyl-phenyl)-piperidine-4-carboxylic acid (1-acetyl-2,3-dihydro-1H-indol-7-yl)-amide]: the “h Binding % I (1 uM)” value at hVR1 receptors is on record as 4.8%. In addition, the inhibition at 9 µM in assay [1] (setting [2]) is 48.5%. For the same compound, in assay [1], the IC50 is 5.61 µM.
On to `O=C(Nc1ccc2ncsc2c1)C1CCN(c2cccc(C(F)(F)F)c2)CC1` [Example 13, 1-(3-Trifluoromethyl-phenyl)-piperidine-4-carboxylic acid benzothiazol-6-ylamide], for which the “h Binding % I (1 uM)” value at hVR1 receptors worked out at 47.7%. For the same compound, in assay [1] (setting [2]), the inhibition at 9 µM worked out at 88%. In addition, in assay [1], the IC50 was 0.48 µM.
For `CC(=O)N1CCc2ccc(NC(=O)C3CCN(c4cccc(C(F)(F)F)c4)CC3)cc21` [Example 16, 1-(3-Trifluoromethyl-phenyl)-piperidine-4-carboxylic acid (1-acetyl-2,3-dihydro-1H-indol-6-yl)-amide], in that order: 15.0%, 83% and 0.8 µM.
Take `O=C(Nc1cccc2[nH]ccc12)C1CCN(c2cccc(C(F)(F)F)c2)CC1` [Example 21, 1-(3-Trifluoromethyl-phenyl)-piperidine-4-carboxylic acid (1H-indol-4-yl)-amide]: on hVR1 receptors, the “h Binding % I (1 uM)” value is recorded as 86.9% and the Ki was determined as 0.134 µM. Also, in assay [1] (9 uM, inhibition of capsaicin (EC80)-induced calcium response, HEK 293 cells transfected with hVR1), the “h % I (9 uM)” value turned out to be 102.0%. Moreover, in assay [1], the IC50 was 0.16 µM.
With `O=C1COc2ccc(NC(=O)C3CCN(c4cccc(Br)c4)CC3)cc2N1` [Example 149, 1-(3-Bromo-phenyl)-piperidine-4-carboxylic acid (3-oxo-3,4-dihydro-2H-benzo[1,4]oxazin-6-yl)-amide], the inhibition at 9 µM in assay [1] (setting [2]) was determined as 91.3%. For the same compound, the IC50 in assay [1] came to 0.33 µM.
For the compound `COc1cccc(N2CCC(C(=O)Nc3ccc4c(c3)NC(=O)CO4)CC2)c1` [Example 150, 1-(3-Methoxy-phenyl)-piperidine-4-carboxylic acid (3-oxo-3,4-dihydro-2H-benzo[1,4]oxazin-6-yl)-amide], the inhibition at 9 µM in assay [1] (setting [2]) was 79.3%. The IC50 in assay [1] amounted to 1.42 µM.
Taken in the same sequence, the figures for `O=C1COc2ccc(NC(=O)C3CCN(c4cc(F)c(F)c(F)c4)CC3)cc2N1` [Example 156, 1-(3,4,5-Trifluoro-phenyl)-piperidine-4-carboxylic acid (3-oxo-3,4-dihydro-2H-benzo[1,4]oxazin-6-yl)-amide] were 93.3% and 0.06 µM.
For `Cc1c(Cl)cccc1N1CCC(C(=O)Nc2ccc3c(c2)NC(=O)CO3)CC1` [Example 157, 1-(3-Chloro-2-methyl-phenyl)-piperidine-4-carboxylic acid (3-oxo-3,4-dihydro-2H-benzo[1,4]oxazin-6-yl)-amide], in that order: 90.3% and 0.1 µM.
For `Cc1cccnc1N1CCC(C(=O)Nc2ccc3c(c2)NC(=O)CO3)CC1` [Example 158, 3′-Methyl-3,4,5,6-tetrahydro-2H-[1,2′]bipyridinyl-4-carboxylic acid (3-oxo-3,4-dihydro-2H-benzo[1,4]oxazin-6-yl)-amide], the inhibition at 9 µM in assay [1] (setting [2]) was found to be 39%.
The same measure, in the same setting: the result for `O=C1COc2ccc(NC(=O)C3CCN(c4nc5ccccc5s4)CC3)cc2N1` [Example 159, 1-Benzothiazol-2-yl-piperidine-4-carboxylic acid (3-oxo-3,4-dihydro-2H-benzo[1,4]oxazin-6-yl)-amide] reads 20.7%.
In the case of `O=C1COc2ccc(NC(=O)C3CCN(c4cccc(F)c4Br)CC3)cc2N1` [Example 160, 1-(2-Bromo-3-fluoro-phenyl)-piperidine-4-carboxylic acid (3-oxo-3,4-dihydro-2H-benzo[1,4]oxazin-6-yl)-amide], in assay [1] (setting [2]), the inhibition at 9 µM is 93%. Moreover, the IC50 in assay [1] came to 0.13 µM.
Turning to `O=C1COc2ccc(NC(=O)C3CCN(c4ncccc4[N+](=O)[O-])CC3)cc2N1` [Example 161, 3′-Nitro-3,4,5,6-tetrahydro-2H-[1,2′]bipyridinyl-4-carboxylic acid (3-oxo-3,4-dihydro-2H-benzo[1,4]oxazin-6-yl)-amide], in assay [1] (setting [2]), the inhibition at 9 µM was 28.7%.
For `N#Cc1c(N2CCC(C(=O)Nc3ccc4c(c3)NC(=O)CO4)CC2)cccc1C(F)(F)F` [Example 162, 1-(2-Cyano-3-trifluoromethyl-phenyl)-piperidine-4-carboxylic acid (3-oxo-3,4-dihydro-2H-benzo[1,4]oxazin-6-yl)-amide], in assay [1] (setting [2]), the inhibition at 9 µM came to 37%.
The same measure, in the same setting: the result for `N#Cc1ccc(C(F)(F)F)cc1N1CCC(C(=O)Nc2ccc3c(c2)NC(=O)CO3)CC1` [Example 163, 1-(2-Cyano-5-trifluoromethyl-phenyl)-piperidine-4-carboxylic acid (3-oxo-3,4-dihydro-2H-benzo[1,4]oxazin-6-yl)-amide] reads 19.7%.
As to `O=C1COc2ccc(NC(=O)C3CCN(c4c(F)c(F)c(Br)c(F)c4F)CC3)cc2N1` [Example 164, 1-(4-Bromo-2,3,5,6-tetrafluoro-phenyl)-piperidine-4-carboxylic acid (3-oxo-3,4-dihydro-2H-benzo[1,4]oxazin-6-yl)-amide], the inhibition at 9 µM in assay [1] (setting [2]) worked out at 87%. Moreover, in assay [1], the IC50 was 0.11 µM.
On to `O=C1COc2ccc(NC(=O)C3CCN(c4ccccc4C(F)(F)F)CC3)cc2N1` [Example 165, 1-(2-Trifluoromethyl-phenyl)-piperidine-4-carboxylic acid (3-oxo-3,4-dihydro-2H-benzo[1,4]oxazin-6-yl)-amide], for which, in assay [1] (setting [2]), the inhibition at 9 µM was 94.8%. The concentration for half-maximal inhibition (IC50) in assay [1] worked out at 0.38 µM.
In the case of `O=C1COc2ccc(NC(=O)C3CCN(c4cc(C(F)(F)F)ccc4C(F)(F)F)CC3)cc2N1` [Example 166, 1-(2,5-Bis-trifluoromethyl-phenyl)-piperidine-4-carboxylic acid (3-oxo-3,4-dihydro-2H-benzo[1,4]oxazin-6-yl)-amide], the inhibition at 9 µM in assay [1] (setting [2]) stood at 100%. In assay [1], the IC50 stood at 0.29 µM.
In the case of `O=C1COc2ncc(NC(=O)C3CCN(c4cccc(C(F)(F)F)c4)CC3)cc2N1` [Example 167, 1-(3-Trifluoromethyl-phenyl)-piperidine-4-carboxylic acid (2-oxo-2,3-dihydro-1H-pyrido[2,3-b][1,4]oxazin-7-yl)-amide], in assay [1] (setting [2]), the inhibition at 9 µM came out at 45.7%.
Still for that read-out and setting: the result for `O=C(Nc1ccc2c(c1)N(CCO)C(=O)CO2)C1CCN(c2cccc(C(F)(F)F)c2)CC1` [Example 168, 1-(3-Trifluoromethyl-phenyl)-piperidine-4-carboxylic acid [4-(2-hydroxy-ethyl)-3-oxo-3,4-dihydro-2H-benzo[1,4]oxazin-6-yl]-amide] reads 59.6%.
